Experimental data as given in publication PMC8840742 (Molecules, 2022).

Legend:
[1] = test system: SARS-CoV-2 B.1.1.7 (UK or Alpha variant); assay: microbe, parasite or virus in culture; format: cell-based; conditions: Severe acute respiratory syndrome coronavirus 2, Vero C1008; VeroE6 cells in presence of P-gp inhibitor
[2] = test system: SARS-CoV-2 B.1.617.2 (Indian or Delta variant); assay: microbe, parasite or virus in culture; format: cell-based; conditions: Severe acute respiratory syndrome coronavirus 2, Vero C1008; VeroE6 cells in presence of P-gp inhibitor

`c1ccc(CCN2CCC(Oc3ccccc3-c3nc(-c4ccncc4)no3)C2)cc1` (centres unmarked) [Compound 1, 5-(2-((1-Phenethylpyrrolidin-3-yl)oxy)phenyl)-3-(pyridin-4-yl)-1,2,4-oxadiazole] was tested, and the EC50 [1] was 3 ± 1 µM and the EC50 [2] was 4 ± 2 µM.
